Measured values: US12643886B2 (Ontario Institute for Cancer Research (OICR), priority 2021, dated 2026)

Experiments:
Type in all cases: biochemical
Aurora A = biological target: T1, Aurora A (Homo sapiens, UniProt O14965); test: Counter-screen against Aurora A; settings: read-out: AUR-A (IC50)
T1 sequence (O14965 1-403): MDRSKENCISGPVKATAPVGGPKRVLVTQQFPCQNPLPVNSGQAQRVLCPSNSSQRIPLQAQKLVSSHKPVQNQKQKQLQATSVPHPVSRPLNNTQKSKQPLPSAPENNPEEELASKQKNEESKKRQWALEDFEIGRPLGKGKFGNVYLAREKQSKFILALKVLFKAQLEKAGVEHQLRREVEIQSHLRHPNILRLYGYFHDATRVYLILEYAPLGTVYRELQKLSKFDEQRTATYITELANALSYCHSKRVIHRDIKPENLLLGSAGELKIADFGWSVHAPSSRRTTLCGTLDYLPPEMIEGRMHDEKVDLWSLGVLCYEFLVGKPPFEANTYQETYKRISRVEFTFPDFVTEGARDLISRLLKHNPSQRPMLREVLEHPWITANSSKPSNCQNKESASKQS
In short: (§1)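 Full-length recombinant NUAK2 incubated 40 min at room temperature in 8 mM MOPS pH 7.0, 0.2 mM EDTA, 10 mM magnesium acetate, 300 μM peptide substrate and 33P-ATP. Stopped with 0.5% phosphoric acid; filter-bound label counted by scintillation. IC50 reported as ranges; NUAK1 and Aurora A served as counter-screens.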

NUAK2 (h) = biological target: T2, NUAK2 (h) (Homo sapiens, UniProt Q9H093); test: NUAK2 enzymatic assay (radiometric, Eurofins); settings: full-length recombinant enzyme
T2 construct: This assay was done radiometrically using full-length, recombinant enzyme; purchased Eurofins
T2 sequence (Q9H093 1-628): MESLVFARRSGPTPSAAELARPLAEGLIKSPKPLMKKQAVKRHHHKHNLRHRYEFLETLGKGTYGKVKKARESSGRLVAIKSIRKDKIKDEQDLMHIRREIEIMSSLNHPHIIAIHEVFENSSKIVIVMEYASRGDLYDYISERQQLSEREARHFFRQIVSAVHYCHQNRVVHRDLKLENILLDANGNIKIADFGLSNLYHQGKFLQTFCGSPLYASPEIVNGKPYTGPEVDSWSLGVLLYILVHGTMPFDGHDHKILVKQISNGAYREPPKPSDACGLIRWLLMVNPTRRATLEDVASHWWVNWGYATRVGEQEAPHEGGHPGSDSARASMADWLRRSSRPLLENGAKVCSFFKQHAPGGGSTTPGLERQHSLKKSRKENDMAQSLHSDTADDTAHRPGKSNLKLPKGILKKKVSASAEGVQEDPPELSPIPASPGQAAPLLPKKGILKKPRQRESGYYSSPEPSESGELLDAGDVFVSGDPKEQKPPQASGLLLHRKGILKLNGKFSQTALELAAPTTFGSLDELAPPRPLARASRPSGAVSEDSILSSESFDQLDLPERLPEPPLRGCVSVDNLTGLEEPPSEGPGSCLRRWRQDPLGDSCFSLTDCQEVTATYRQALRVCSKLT
In short: as §1

NUAK1 = biological target: T3, NUAK1 (Homo sapiens, UniProt O60285); test: Counter-screen against NUAK1
T3 sequence (O60285 1-661): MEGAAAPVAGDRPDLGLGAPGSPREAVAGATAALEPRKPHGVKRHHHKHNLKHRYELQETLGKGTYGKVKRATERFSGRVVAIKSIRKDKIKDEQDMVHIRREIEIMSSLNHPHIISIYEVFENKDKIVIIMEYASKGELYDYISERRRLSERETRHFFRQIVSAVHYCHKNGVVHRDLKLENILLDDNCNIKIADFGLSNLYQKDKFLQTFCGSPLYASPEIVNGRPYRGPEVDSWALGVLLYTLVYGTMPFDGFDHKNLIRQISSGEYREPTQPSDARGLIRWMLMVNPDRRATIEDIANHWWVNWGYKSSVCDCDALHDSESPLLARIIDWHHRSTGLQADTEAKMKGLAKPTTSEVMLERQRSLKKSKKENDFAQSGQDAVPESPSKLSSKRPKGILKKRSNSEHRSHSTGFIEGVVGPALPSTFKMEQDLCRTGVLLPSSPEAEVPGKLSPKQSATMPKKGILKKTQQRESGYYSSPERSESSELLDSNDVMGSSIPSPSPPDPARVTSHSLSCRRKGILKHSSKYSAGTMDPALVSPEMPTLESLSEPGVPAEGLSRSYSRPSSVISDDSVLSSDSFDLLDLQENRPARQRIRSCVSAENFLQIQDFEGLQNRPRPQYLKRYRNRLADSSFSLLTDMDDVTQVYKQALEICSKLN
In short: as §1

SMILES	IC50 (Aurora A) [nM]	IC50 (NUAK2 (h)) [nM]	IC50 (NUAK1) [nM]
C[C@@H]1CN(c2ccc(Nc3ncc(C(F)(F)F)c(Nc4cccc5c4C(=O)NC5)n3)c(OC(F)F)c2)CCN1 [Compound I-57, (R)-7-((2-((2-(difluoromethoxy)-4-(3-methylpiperazin-1-yl)phenyl)amino)-5-(trifluoromethyl)pyrimidin-4-yl)amino)isoindolin-1-one]	> 1000	0.1 to 10	11 to 100
O=C1NCc2cccc(Nc3nc(Nc4ccc(N5CCC6(CCNCC6)CC5)cc4OC(F)F)ncc3C(F)(F)F)c21 [Compound I-58, 7-((2-((2-(difluoromethoxy)-4-(3,9-diazaspiro[5.5]undecan-3-yl)phenyl)amino)-5-(trifluoromethyl)pyrimidin-4-yl)amino)isoindolin-1-one]	101 to 1000	11 to 100	11 to 100
O=C1NCc2cccc(Nc3nc(Nc4ccc(N5CCOCC5)cc4OC(F)F)ncc3C(F)(F)F)c21 [Compound I-60, 7-((2-((2-(difluoromethoxy)-4-morpholinophenyl)amino)-5-(trifluoromethyl)pyrimidin-4-yl)amino)isoindolin-1-one]	101 to 1000	11 to 100	11 to 100
CCN(CC)CCOc1ccc(Nc2ncc(C(F)(F)F)c(Nc3cccc4c3C(=O)NC4)n2)cc1 [Compound I-61, 7-((2-((4-(2-(diethylamino)ethoxy)phenyl)amino)-5-(trifluoromethyl)pyrimidin-4-yl)amino)isoindolin-1-one]	101 to 1000	11 to 100	11 to 100
CCN(CC)CCOc1ccc(Nc2ncc(Cl)c(Nc3cccc4c3C(=O)NC4)n2)cc1 [Compound I-62, 7-((5-chloro-2-((4-(2-(diethylamino)ethoxy)phenyl)amino)pyrimidin-4-yl)amino)isoindolin-1-one]	11 to 100	0.1 to 10	0.1 to 10
O=C1NCc2cccc(Nc3nc(Nc4ccc(N5C[C@H]6CC[C@@H](C5)N6)cc4OC(F)F)ncc3Cl)c21 [Compound I-64, 7-((2-((4-((1R,5S)-3,8-diazabicyclo[3.2.1]octan-3-yl)-2-(difluoromethoxy)phenyl)amino)-5-chloropyrimidin-4-yl)amino)isoindolin-1-one]	> 1000	0.1 to 10	11 to 100
CC1(C)CN(c2ccc(Nc3ncc(C(F)(F)F)c(Nc4cccc5c4C(=O)NC5)n3)c(OC(F)F)c2)CCN1 [Compound I-65, 7-((2-((2-(difluoromethoxy)-4-(3,3-dimethylpiperazin-1-yl)phenyl)amino)-5-(trifluoromethyl)pyrimidin-4-yl)amino)isoindolin-1-one]	101 to 1000	0.1 to 10	101 to 1000
O=C1NCc2cccc(Nc3nc(Nc4ccc(N5C[C@@H]6C[C@H]5CN6)cc4OC(F)F)ncc3Cl)c21 [Compound I-66, 7-((2-((4-((1S,4S)-2,5-diazabicyclo[2.2.1]heptan-2-yl)-2-(difluoromethoxy)phenyl)amino)-5-chloropyrimidin-4-yl)amino)isoindolin-1-one]	101 to 1000	0.1 to 10	11 to 100
O=C1NCc2cccc(Nc3nc(Nc4ccc(N5CCC(N6CCNCC6)CC5)cc4OC(F)F)ncc3Cl)c21 [Compound I-67, 7-((5-chloro-2-((2-(difluoromethoxy)-4-(4-(piperazin-1-yl)piperidin-1-yl)phenyl)amino)pyrimidin-4-yl)amino)isoindolin-1-one]	101 to 1000	0.1 to 10	11 to 100
COc1nc(N2CCN(C)CC2)ccc1Nc1ncc(C(F)(F)F)c(Nc2cccc3c2C(=O)NC3)n1 [Compound I-68, 7-((2-((2-methoxy-6-(4-methylpiperazin-1-yl)pyridin-3-yl)amino)-5-(trifluoromethyl)pyrimidin-4-yl)amino)isoindolin-1-one]	101 to 1000	0.1 to 10	11 to 100
